Tested on: 266295-075-R-J1-PDC spheroid viability
Test: Anticancer human tumor 266295-075-R-J1-PDC patient-derived head and neck squamous carcinoma cell line growth inhibition [POLQ]
Settings: spheroids with HUVEC and MSC; for IC50: curve of first compound; for viability, T/C: stronger effect = lower value
Protocol: Multicellular complex tumor spheroid response to Polymerase (POL) inhibitors (novobiocin, ART-558, RP6685) in combination with a variety of drugs and investigational agents in selected tumor cell lines
The POL inhibitors (novobiocin, ART-558, and RP6685) were evaluated both individually and in combination with standard of care and investigational anticancer small molecules within a complex spheroid model of solid tumors. . Complex spheroids include a stromal component modeled by human endothelial cells (HUVEC) and fibroblasts modeled by human mesenchymal stem cells (MSCs). The concentration ranges selected for each drug and investigational agent were based upon clinically achievable concentrations if the clinical Cmax of the agent was known.
Compounds. The drugs and investigational agents: novobiocin (NSC847541), ART-558 (NSC835418), RP-6685 (NSC848927), peposertib (NSC802822), ceralasertib (NSC780249), elimusertib (NSC800525), camonsertib (NSC841442), AZD-1390 (NSC803789), olaparib (NSC753686), talazoparib (NSC767125), rucaparib (NSC756644), sotorasib (NSC818433), MRTX-1133 (NSC836407), SN-38 (NSC673596), topotecan (NSC609699), epotoside (NSC141540), doxorubicin (NSC123127), gemcitabine (NSC613327), 5-fluorouracil (NSC19893), paclitaxel (NSC125973), vemurafenib (NSC761431), MSA-2 (NSC828583), SN-011 (NSC837082), adavosertib (NSC754352), prexasertib (NSC758257), carboplatin (NSC241240) and oxaliplatin (NSC266046), were obtained from the National Cancer Institute (NCI) Developmental Therapeutics Program Chemical Repository (21). The FDA-approved anticancer drug set is available from the Developmental Therapeutics Program at https://dtp.cancer.gov/organization/dscb/obtaining/. […] The stock solutions were prepared in dimethyl sulfoxide (DMSO, Sigma-Aldrich, St. Louis, MO, cat. D2650), except for the platinum compounds which were prepared in saline (Quality Biological, Gaithersburg, MD, cat. 114-055-101), at 800-fold the tested concentration and stored at -70 degrees C prior to their use. All drugs and investigational agents were tested over a range starting from a high concentration at or near the clinical Cmax and decreasing in half-log increments. If the clinical Cmax for an agent had not been determined, the highest concentration tested was 10 microM, except for SN-38, which was tested at a high concentration of 1 microM.
Cell Culture. All cells were maintained in an incubator at 37 degrees C and 5% CO2 with 95% humidity. The PDC lines were cultured according to standard operating procedures established by the NCI PDMR (https://pdmr.cancer.gov). Table 3 of the manuscript, lists the cell lines along with the number of the three cell types plated to form the mct-spheroids and media for tumor cell growth. After thawing, all PDC lines, except 997537-175-T-J1-PDC and 415267-285-R-J2-PDC, were cultured in Matrigel-coated flasks prepared with a working solution of 1X Ham's F-12 nutrient mix, without supplementation (Thermo Fisher Scientific, cat. 11765054), 100 U/mL penicillin-streptomycin (Thermo Fisher Scientific, cat. 15140122), and 2.5% Matrigel (Corning Inc., Corning, NY, cat. 354248) for the first three passages. The two PDC lines 997537-175-T-J1-PDC and 415267-285-R-J2-PDC were cultured on uncoated flasks. The 857933-349-R-J2-PDC line was cultured in 6C/Colon 1B media containing advanced DMEM/F-12 (Thermo Fisher Scientific, cat. 12634028), 10 mM HEPES (Thermo Fisher Scientific, cat. 15630080), 1X GlutaMAX supplement (Thermo Fisher Scientific, cat. 35050061), 0.1 mg/mL primocin (InvivoGen, San Diego, CA, cat. ant-pm-2), 10% defined fetal bovine serum, heat inactivated (HyClone Laboratories Inc., Logan, UT, cat. SH30070.03HI), 50% L-WRN conditioned media (ATCC, cat. CRL-3276), 1.25 mM N-Acetyl-L-cysteine (Sigma-Aldrich, cat. A9165), 10 mM nicotinamide (Sigma-Aldrich, cat. N0636), 1X B-27 supplement (Thermo Fisher Scientific, cat. 17504044), 1X N-2 supplement (Thermo Fisher Scientific, cat. […]

[1] = second compound 0.0316 µM, first compound 0.0316 µM
[2] = second compound 0.0316 µM, first compound 0.1 µM
[3] = second compound 0.0316 µM, first compound 0.316 µM
[4] = second compound 0.0316 µM, first compound 1 µM
[5] = second compound 0.0316 µM, first compound 3.16 µM
[6] = second compound 0.0316 µM, first compound 10 µM
[7] = second compound 0.1 µM, first compound 0.0316 µM
[8] = second compound 0.1 µM, first compound 0.1 µM
[9] = second compound 0.1 µM, first compound 0.316 µM
[10] = second compound 0.1 µM, first compound 1 µM
[11] = second compound 0.1 µM, first compound 3.16 µM
[12] = second compound 0.1 µM, first compound 10 µM
[13] = second compound 0.316 µM, first compound 0.0316 µM
[14] = second compound 0.316 µM, first compound 0.1 µM
[15] = second compound 0.316 µM, first compound 0.316 µM
[16] = second compound 0.316 µM, first compound 1 µM
[17] = second compound 0.316 µM, first compound 3.16 µM
[18] = second compound 0.316 µM, first compound 10 µM
[19] = second compound 1 µM, first compound 0.0316 µM
[20] = second compound 1 µM, first compound 0.1 µM
[21] = second compound 1 µM, first compound 0.316 µM
[22] = second compound 1 µM, first compound 1 µM
[23] = second compound 1 µM, first compound 3.16 µM
[24] = second compound 1 µM, first compound 10 µM
[25] = second compound 3.16 µM, first compound 0.0316 µM
[26] = second compound 3.16 µM, first compound 0.1 µM
[27] = second compound 3.16 µM, first compound 0.316 µM
[28] = second compound 3.16 µM, first compound 1 µM
[29] = second compound 3.16 µM, first compound 3.16 µM
[30] = second compound 3.16 µM, first compound 10 µM
[31] = second compound 10 µM, first compound 0.0316 µM
[32] = second compound 10 µM, first compound 0.1 µM
[33] = second compound 10 µM, first compound 0.316 µM
[34] = second compound 10 µM, first compound 1 µM
[35] = second compound 10 µM, first compound 3.16 µM
[36] = second compound 10 µM, first compound 10 µM
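Note: spheroids exposed to compounds for seven days before readout.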

Compound: CC1COCCN1c1cc(-c2ccnn2C)c2ccnc(-c3ccn[nH]3)c2n1 (centres undefined) + Cc1cccc(N(C)C(=O)C2C(O)CCN2c2nc(C)cc(C(F)(F)F)c2C#N)c1
- IC50 (second compound 0.0316 µM): 1640 nM
- IC50 (second compound 0.1 µM): 1320 nM
- IC50 (second compound 0.316 µM): 1400 nM
- IC50 (second compound 1 µM): 1150 nM
- IC50 (second compound 3.16 µM): 1870 nM
- IC50 (second compound 10 µM): 1780 nM
- viability, T/C [1]: 93.8%
- viability, T/C [2]: 69.7%
- viability, T/C [3]: 68.4%
- viability, T/C [4]: 56%
- viability, T/C [5]: 41%
- viability, T/C [6]: 40%
- viability, T/C [7]: 87.2%
- viability, T/C [8]: 68.4%
- viability, T/C [9]: 60.9%
- viability, T/C [10]: 52.6%
- viability, T/C [11]: 45.2%
- viability, T/C [12]: 40.9%
- viability, T/C [13]: 75.6%
- viability, T/C [14]: 78.2%
- viability, T/C [15]: 68.9%
- viability, T/C [16]: 50.7%
- viability, T/C [17]: 47.4%
- viability, T/C [18]: 36.9%
- viability, T/C [19]: 89%
- viability, T/C [20]: 81.6%
- viability, T/C [21]: 69.4%
- viability, T/C [22]: 48.4%
- viability, T/C [23]: 46.3%
- viability, T/C [24]: 38.1%
- viability, T/C [25]: 81.3%
- viability, T/C [26]: 78.4%
- viability, T/C [27]: 66.8%
- viability, T/C [28]: 54.9%
- viability, T/C [29]: 46.6%
- viability, T/C [30]: 36.7%
- viability, T/C [31]: 87.4%
- viability, T/C [32]: 90.1%
- viability, T/C [33]: 69.7%
- viability, T/C [34]: 56.3%
- viability, T/C [35]: 46.1%
- viability, T/C [36]: 38%

Compound: COc1ccc([C@@H](O)c2cc(-c3ncnc4cc(N5CCOCC5)ccc34)c(F)cc2Cl)nn1 + Cc1cccc(N(C)C(=O)C2C(O)CCN2c2nc(C)cc(C(F)(F)F)c2C#N)c1
- IC50 (second compound 0.0316 µM): 3950 nM
- IC50 (second compound 0.1 µM): 2460 nM
- IC50 (second compound 0.316 µM): 2640 nM
- IC50 (second compound 1 µM): 2700 nM
- IC50 (second compound 3.16 µM): 3940 nM
- IC50 (second compound 10 µM): 5670 nM
- viability, T/C [1]: 102%
- viability, T/C [2]: 82.1%
- viability, T/C [3]: 73.5%
- viability, T/C [4]: 73.9%
- viability, T/C [5]: 47.3%
- viability, T/C [6]: 40.5%
- viability, T/C [7]: 90.2%
- viability, T/C [8]: 86.5%
- viability, T/C [9]: 81.5%
- viability, T/C [10]: 71%
- viability, T/C [11]: 43%
- viability, T/C [12]: 39.9%
- viability, T/C [13]: 101%
- viability, T/C [14]: 112%
- viability, T/C [15]: 91.4%
- viability, T/C [16]: 62.7%
- viability, T/C [17]: 53.2%
- viability, T/C [18]: 38.9%
- viability, T/C [19]: 81.8%
- viability, T/C [20]: 94.2%
- viability, T/C [21]: 69.3%
- viability, T/C [22]: 76.6%
- viability, T/C [23]: 45.3%
- viability, T/C [24]: 39.1%
- viability, T/C [25]: 85.3%
- viability, T/C [26]: 80.9%
- viability, T/C [27]: 76%
- viability, T/C [28]: 66.2%
- viability, T/C [29]: 53.3%
- viability, T/C [30]: 36.5%
- viability, T/C [31]: 115%
- viability, T/C [32]: 92.4%
- viability, T/C [33]: 89%
- viability, T/C [34]: 69%
- viability, T/C [35]: 53.7%
- viability, T/C [36]: 44.8%

Source: PubChem BioAssay AID1963853 (Molecular Pharmacology Branch, DTP, NCI, 2024)
